Results published in US10344019B2 (priority 2010, dated 2019).
Where two headings read alike, the source gives them in different places.

Assays:
Assay type in all cases: cell-based
[1] = system: HCV 2a JFH-1 Rluc cells (dicistronic genotype 2a JFH-1 replicon, RLuc reporter); assay: microbe, parasite or virus in culture; settings: Hepatitis C virus, read-out: 2a JFH
Outline: (§1)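 Renilla luciferase HCV replicon cells: dicistronic 1b Con1, 1a H77 or 2a JFH-1 replicons, or a JFH-1 chimera carrying J6 NS5A (M31 present). Compound in DMSO serial dilutions, 72 h incubation, then lysis and luciferase read. EC50 by non-linear regression.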

[2] = system: HCV 1a RLuc cells (dicistronic genotype 1a H77 replicon, RLuc reporter); assay: microbe, parasite or virus in culture; settings: Hepatitis C virus, read-out: 1a
Outline: as §1

[3] = system: HCV 3a RLuc cells (NS5A chimeric genotype 1b Con1 replicon with consensus genotype 3a NS5A gene); assay: microbe, parasite or virus in culture; settings: Hepatitis C virus
Outline: (§2)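 Replicon cells stably carrying the listed RLuc-encoding dicistronic replicons were seeded and treated with DMSO serial dilutions of compound (10 mM stocks) diluted into culture medium. After 72 h, cells were lysed and Renilla luciferase activity measured. EC50 was derived by non-linear regression.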

[4] = system: HCV 2b Rluc cells (NS5A chimeric genotype 2a JFH-1 replicon with genotype 2b MD2b-1 NS5A gene, M31 present); assay: microbe, parasite or virus in culture; settings: Hepatitis C virus, read-out: 2b
Outline: as §2

[5] = system: HCV 4a Rluc cells (NS5A chimeric genotype 1b Con1 replicon with genotype 4a NS5A gene); assay: microbe, parasite or virus in culture; settings: Hepatitis C virus, read-out: 4a
Outline: as §2

[6] = system: HCV 1b RLuc cells (dicistronic genotype 1b Con1 replicon, RLuc reporter); assay: microbe, parasite or virus in culture; settings: Hepatitis C virus, read-out: 1b (nM)
Outline: as §1

[7] = system: HCV 2a Rluc cells (NS5A chimeric genotype 2a JFH-1 replicon with genotype 2a J6 strain NS5A gene, M31 present); assay: HCV replicon reporter assay, genotype 2a J6 (M31 present); settings: Hepatitis C virus, read-out: 2a J6
Outline: as §1

[8] = genotype 2a JFH-1 RLuc replicon
[9] = read-out: 3a, genotype 3a NS5A chimeric replicon
[10] = genotype 2a JFH-1 replicon, RLuc reporter
[11] = genotype 1a H77 replicon, RLuc reporter
[12] = read-out: 3a, genotype 3a NS5A chimeric 1b Con1 replicon
[13] = read-out: 3a, genotype 3a replicon

Row | Structure (SMILES) | EC50 [1, 8] [nM] | EC50 ([2]; genotype 1a H77 RLuc replicon) [nM] | EC50 [3, 9] [nM] | EC50 [4] [nM] | EC50 [5] [nM] | EC50 [6] [nM] | EC50 [7] [nM] | EC50 [1, 10] [nM] | EC50 [2, 11] [nM] | EC50 [3, 12] [nM] | EC50 ([1]; genotype 2a JFH-1 replicon) [nM] | EC50 ([2]; genotype 1a replicon) [nM] | EC50 [3, 13] [nM]
1 | COC(=O)N[C@H](C(=O)N1CCCC1c1ncc(-c2ccc3c(c2)COc2cc4c(ccc5nc([C@@H]6C[C@@H]7CCC[C@@H]7N6C(=O)[C@@H](NC(=O)OC)C(C)C)[nH]c54)cc2-3)[nH]1)C(C)C (stereo partly shown) [Example 576] | 0.001 to 0.999 | 0.001 to 0.999 | 0.001 to 0.99 | 0.001 to 0.999 | 0.001 to 0.99 | 0.014 | 1 to 44 |  |  |  |  |  | 
2 | COC(=O)N[C@H](C(=O)N1CCC[C@H]1c1ncc(-c2ccc3cc(-c4ccc(-c5cnc([C@@H]6C[C@@H](C)CN6C(=O)[C@H](NC(=O)OC)c6ccccc6)[nH]5)cc4)ccc3c2)[nH]1)C(C)C [Example 159] |  |  |  | 1 to 44 | 0.001 to 0.99 | 0.006 | > 44 | 0.001 to 0.999 | 0.001 to 0.999 | 0.001 to 0.99 |  |  | 
3 | COC[C@H]1C[C@@H](c2nc3ccc4cc5c(cc4c3[nH]2)OCc2cc(-c3cnc([C@@H]4CCCN4C(=O)[C@H](NC(=O)C4CC4)c4ccccc4)[nH]3)ccc2-5)N(C(=O)[C@@H](NC(=O)OC)C(C)C)C1 [Example 510] | 0.001 to 0.999 | 0.001 to 0.999 | 0.001 to 0.99 | 0.001 to 0.999 | 0.001 to 0.99 | 0.05 | 0.001 to 0.999 |  |  |  |  |  | 
4 | CC(C)COC(=O)N[C@@H](C(=O)N1CCC[C@H]1c1ncc(-c2cc3c4c(c2)OCc2cc(-c5cnc([C@@H]6CCCN6C(=O)[C@H](NC(=O)OCC(C)C)c6ccccc6)[nH]5)cc(c2-4)OC3)[nH]1)c1ccccc1 [Example 487] |  |  |  | 1 to 44 | 0.001 to 0.99 | 0.027 | > 44 |  |  |  | 0.001 to 0.999 | 0.001 to 0.999 | 0.001 to 0.99
5 | COC(=O)N[C@H](C(=O)N1C[C@@H](OC)C[C@H]1c1ncc(-c2ccc(-c3ccc4cc(-c5cnc([C@@H]6CCCN6C(=O)[C@H](NC(=O)OC)c6ccccc6)[nH]5)ccc4c3)cc2)[nH]1)C(C)C [Example 123] |  |  |  | > 44 | 0.001 to 0.99 | 0.014 | > 44 | 0.001 to 0.999 | 0.001 to 0.999 | 0.001 to 0.99 |  |  | 
6 | CC[C@H](C)[C@H](NC(=O)OC)C(=O)N1CCC[C@H]1c1nc2ccc3cc(-c4ccc5c(ccc6nc([C@@H]7C[C@H](COC)CN7C(=O)[C@H](NC(=O)C7CC7)c7ccccc7)[nH]c65)c4)ccc3c2[nH]1 [Example 511] | 0.001 to 0.999 | 0.001 to 0.999 | 0.001 to 0.99 | 0.001 to 0.999 | 0.001 to 0.99 | 0.019 | 0.001 to 0.999 |  |  |  |  |  | 
7 | COC(=O)N[C@H](C(=O)N1CCC[C@H]1c1ncc(-c2ccc3cc(-c4ccc5c(c4)CCc4nc([C@@H]6CCCN6C(=O)[C@@H](NC(=O)OC)C(C)C)[nH]c4-5)ccc3c2)[nH]1)C(C)C [Example 114] |  |  |  | > 44 | 0.001 to 0.99 | 0.011 | > 44 | 1 to 44 | 0.001 to 0.999 | 1 to 4.99 |  |  | 
8 | COC(=O)N[C@H](C(=O)N1CCC[C@H]1c1nc2ccc3cc(-c4ccc5cc(-c6[nH]c([C@@H]7CCCN7C(=O)[C@H](NC(=O)OC)c7ccccc7)nc6Cl)ccc5c4)ccc3c2[nH]1)C(C)C [Example 385] |  |  |  | 1 to 44 | 0.001 to 0.99 | 0.007 | 1 to 44 |  |  |  | 0.001 to 0.999 | 0.001 to 0.999 | 0.001 to 0.99
9 | COC[C@H]1C[C@@H](c2nc3ccc4cc(-c5ccc(-c6cnc([C@@H]7CCCN7C(=O)[C@@H](NC(=O)OC)C(C)C)[nH]6)cc5)ccc4c3[nH]2)N(C(=O)[C@@H](NC(=O)OC)C(C)C)C1 [Example 417] |  |  |  | 1 to 44 | 0.001 to 0.99 | 0.024 | 1 to 44 |  |  |  | 0.001 to 0.999 | 0.001 to 0.999 | 0.001 to 0.99
10 | COC[C@H]1C[C@@H](c2nc3ccc4cc(-c5ccc(-c6cnc([C@@H]7CCCN7C(=O)[C@H](NC(=O)OC)c7ccccc7)[nH]6)cc5OCC(F)(F)F)ccc4c3[nH]2)N(C(=O)[C@@H](NC(=O)OC)C(C)C)C1 [Example 474] |  |  |  | 1 to 44 | 0.001 to 0.99 | 0.025 | 1 to 44 |  |  |  | 0.001 to 0.999 | 0.001 to 0.999 | 0.001 to 0.99
